# Values of other authors as cited in patent publication US8455667B2, “Duloxetine compositions in the form of a powder for suspension in a liquid” (priority 2005, dated 2013).
# Columns and labels:
# dopaminergic receptors = details: in vitro
# adrenergic receptors = details: in vitro
# cholinergic receptors = details: in vitro
# histaminergic receptors = details: in vitro
# [1] = in vivo
structure (smiles),measurement,setting,value
"CNCC[C@H](Oc1cccc2ccccc12)c1cccs1 [Duloxetine, (S)-N-methyl-3-(1-naphthyloxy)-3-(2-thienyl) propan-1-amine]",affinity for dopaminergic receptors,dopaminergic receptors,no significant affinity
same,affinity for adrenergic receptors,adrenergic receptors,no significant affinity
same,affinity for cholinergic receptors,cholinergic receptors,no significant affinity
same,affinity for histaminergic receptors,histaminergic receptors,no significant affinity
same,inhibition of monoamine oxidase (MAO),monoamine oxidase (MAO),does not inhibit
same,dosage hydrolyzed to 1-naphthol,"pH 1.0, within one hour",50%
same,dosage degraded to 1-Naphthol,"pH 2.0, in one hour",10%
same,time for 10% degradation,pH 4.0,up to 63 hours
same,mean plasma elimination half-life,[1],12.1 h
